In brackets after ≈: the same amount, converted by molar mass. Each block holds one compound with its values, some of them ahead of it.
Key:
Assay in all cases: ≥ marks a high value that may be exact or a test limit, other limits are often not marked, values filed in µg/mL are converted to µM
[1] = test system: Staphylococcus aureus ATCC 25923
[2] = test system: Bacillus subtilis ATCC 6633
[3] = test system: Escherichia coli ATCC 25922
[4] = test system: Candida albicans ATCC 20032
[5] = test system: Batrachochytrium dendrobatidis
Staphylococcus aureus = test system: Staphylococcus aureus
[6] = test system: Escherichia coli ATCC 25726
[7] = test system: Staphylococcus aureus NCTC 10788
[8] = test system: Candida albicans NCYC 1467
[9] = test system: Legionella pneumophila Lens
[10] = test system: Staphylococcus aureus JC-1
[11] = test system: Shigella flexneri ATCC 203
Escherichia coli D21 = test system: Escherichia coli D21
[12] = test system: Staphylococcus aureus Cowan 1
Bacillus megaterium Bm11 = test system: Bacillus megaterium Bm11
[13] = test system: Pseudomonas aeruginosa OT97
[14] = test system: Proteus vulgaris OX19 ATCC 6380
Streptococcus mutans = test system: Streptococcus mutans
[15] = test system: Streptococcus mitis ATCC 903
[16] = test system: Lacticaseibacillus casei ATCC 4646
[17] = test system: Veillonella atypica PK1910
[18] = test system: Streptococcus sanguinis NY101
[19] = test system: Streptococcus gordonii Challis DL1
[20] = test system: Staphylococcus aureus ATCC 29213
[21] = test system: Bacillus subtilis ATCC 9372
[22] = test system: Klebsiella pneumoniae ATCC 13883
[23] = test system: Burkholderia thailandensis
[24] = test system: Candida albicans ATCC 10231
[25] = test system: Bacillus anthracis Sterne 34F2
[26] = test system: Pseudomonas aeruginosa PAK
[27] = test system: Streptococcus mutans UA159

MIC [1]: > 51 µM | MIC [2]: ≥ 51 µM | MIC [3]: > 51 µM | MIC [4]: ≥ 51 µM
SMILES: CC[C@H](C)[C@H](N)C(=O)N[C@@H](CC(C)C)C(=O)NCC(=O)N1CCC[C@H]1C(=O)N[C@H](C(=O)N[C@@H](CC(C)C)C(=O)NCC(=O)N[C@@H](CC(C)C)C(=O)N[C@@H](CC(=O)O)C(=O)NCC(=O)N[C@@H](CC(N)=O)C(=O)N[C@@H](C)C(=O)N[C@@H](CC(C)C)C(=O)NCC(=O)NCC(=O)N[C@@H](CC(C)C)C(=O)N[C@H](C(=O)N[C@@H](CCCCN)C(=O)N[C@@H](CCCCN)C(=O)N[C@H](C(N)=O)[C@@H](C)CC)[C@@H](C)CC)C(C)C [ILGPVLGLDGNALGGLIKKI]

MIC [1]: 7.19 µM (≈ 18.8 µg/mL) | MIC [2]: ≥ 38.3 µM | MIC [3]: > 38.3 µM | MIC [4]: ≥ 38.3 µM
SMILES: CC[C@H](C)[C@H](NC(=O)CN)C(=O)NCC(=O)NCC(=O)N[C@H](C(=O)N[C@@H](CC(C)C)C(=O)N[C@@H](CC(C)C)C(=O)NCC(=O)N[C@@H](C)C(=O)NCC(=O)N[C@@H](CCCCN)C(=O)N[C@@H](C)C(=O)N[C@H](C(=O)N[C@@H](CC(C)C)C(=O)N[C@@H](CCCCN)C(=O)NCC(=O)N[C@@H](CC(C)C)C(=O)N[C@@H](C)C(=O)N[C@@H](CCCCN)C(=O)N[C@H](C(=O)N[C@@H](CC(C)C)C(=O)N[C@@H](C)C(=O)N[C@@H](CCC(=O)O)C(=O)N[C@@H](CCCCN)C(=O)N[C@@H](Cc1ccc(O)cc1)C(=O)N[C@@H](C)C(=O)N[C@@H](CC(N)=O)C(N)=O)C(C)C)[C@@H](C)O)C(C)C [GIGGVLLGAGKATLKGLAKVLAEKYAN]

MIC [5]: ≥ 100 µM | MIC (Staphylococcus aureus): 100 µM (≈ 140 µg/mL)
SMILES: CC[C@H](C)[C@H](NC(=O)[C@H](C)NC(=O)[C@H](CO)NC(=O)[C@@H](NC(=O)[C@@H](N)Cc1ccccc1)[C@@H](C)CC)C(=O)N[C@@H](C)C(=O)N[C@@H](CO)C(=O)N[C@@H](CCSC)C(=O)N[C@@H](CC(C)C)C(=O)NCC(=O)N[C@@H](CCCCN)C(=O)N[C@@H](Cc1ccccc1)C(=O)N[C@@H](CC(C)C)C(N)=O [FISAIASMLGKFL]

MIC [6]: ≥ 128 µM | MIC [5]: ≥ 100 µM | MIC [1]: 8 µM (≈ 14.5 µg/mL) | MIC [7]: 4.42 µM (≈ 8 µg/mL) | MIC [8]: 17.7 µM (≈ 32 µg/mL)
SMILES: CC[C@H](C)[C@H](NC(=O)[C@H](C)NC(=O)[C@H](CO)NC(=O)[C@@H](NC(=O)[C@H](C)NC(=O)[C@H](CC(C)C)NC(=O)[C@@H]1CCCN1C(=O)[C@@H](NC(=O)[C@H](CCSC)NC(=O)CNC(=O)[C@H](CC(C)C)NC(=O)[C@@H](N)CC(C)C)[C@@H](C)CC)[C@@H](C)CC)C(=O)N[C@@H](CO)C(=O)N[C@@H](C)C(=O)N[C@@H](CC(C)C)C(=O)N[C@@H](CO)C(=O)N[C@@H](CCCCN)C(=O)N[C@@H](CC(C)C)C(N)=O [LLGMIPLAISAISALSKL]

MIC [9]: 19.6 µM (≈ 49.9 µg/mL)
SMILES: CC[C@H](C)[C@H](NC(=O)[C@H](CC(C)C)NC(=O)[C@H](CC(=O)O)NC(=O)[C@@H](NC(=O)[C@@H](NC(=O)[C@H](Cc1ccccc1)NC(=O)[C@H](CCC(N)=O)NC(=O)[C@@H](N)CCSC)[C@@H](C)CC)[C@@H](C)O)C(=O)NCC(=O)N[C@@H](CCCCN)C(=O)N[C@@H](C)C(=O)N[C@H](C(=O)N[C@@H](CC(=O)O)C(=O)N[C@@H](Cc1ccccc1)C(=O)N[C@@H](Cc1ccccc1)C(=O)N[C@@H](CCCCN)C(=O)NCC(=O)N[C@@H](CC(C)C)C(=O)N[C@@H](Cc1ccccc1)C(=O)N[C@@H](CC(=O)O)C(=O)N[C@@H](CC(N)=O)C(=O)N[C@@H](CCCCN)C(=O)O)C(C)C [MQFITDLIGKAVDFFKGLFDNK]

MIC [10]: ≥ 800 µM | MIC [2]: ≥ 800 µM | MIC [11]: ≥ 800 µM | MIC (Escherichia coli D21): ≥ 3.2 mM | MIC [12]: ≥ 6 mM | MIC (Bacillus megaterium Bm11): ≥ 1600 µM | MIC [13]: ≥ 6 mM | MIC [14]: ≥ 6 mM
SMILES: CC[C@H](C)[C@H](NC(=O)[C@H](CCCCN)NC(=O)[C@@H](NC(=O)[C@@H](NC(=O)[C@H](CCC(N)=O)NC(=O)CNC(=O)[C@H](Cc1cnc[nH]1)NC(=O)[C@H](CCC(N)=O)NC(=O)[C@H](CC(N)=O)NC(=O)[C@H](CCC(N)=O)NC(=O)[C@@H](NC(=O)[C@@H](N)CCCCN)C(C)C)C(C)C)C(C)C)C(=O)N[C@@H](Cc1ccccc1)C(=O)N[C@@H](Cc1cnc[nH]1)C(=O)N[C@@H](Cc1cnc[nH]1)C(=O)O [KVQNQHGQVVKIFHH]

MIC (Streptococcus mutans): 8.83 µM (≈ 13.8 µg/mL) | MIC [15]: ≥ 40.8 µM | MIC [16]: 10.2 µM (≈ 16 µg/mL) | MIC [17]: 20.4 µM (≈ 32 µg/mL) | MIC [18]: 10.2 µM (≈ 16 µg/mL) | MIC [19]: 20.4 µM (≈ 32 µg/mL)
SMILES: CC(C)C[C@H](NC(=O)[C@H](Cc1ccccc1)NC(=O)[C@H](CCCN=C(N)N)NC(=O)[C@H](CCCCN)NC(=O)[C@@H](N)CC(C)C)C(=O)N[C@@H](CCCCN)C(=O)N[C@@H](Cc1c[nH]c2ccccc12)C(=O)N[C@@H](Cc1ccccc1)C(=O)N[C@@H](CCCCN)C(=O)N[C@@H](CCCN=C(N)N)C(=O)N[C@@H](Cc1ccccc1)C(N)=O [LKRFLKWFKRF]

SMILES: CC[C@H](C)[C@H](NC(=O)[C@H](C)NC(=O)[C@@H](N)C(C)C)C(=O)N[C@@H](C)C(=O)N[C@@H](CC(C)C)C(=O)N[C@@H](CCCCN)C(=O)N[C@@H](C)C(=O)N[C@@H](C)C(=O)N[C@@H](Cc1cnc[nH]1)C(=O)N[C@@H](Cc1ccc(O)cc1)C(=O)N[C@@H](Cc1cnc[nH]1)C(=O)N[C@H](C(=O)N[C@@H](Cc1cnc[nH]1)C(=O)N[C@@H](CCCCN)C(=O)N[C@@H](CCC(=O)O)C(=O)O)[C@@H](C)O [VAIALKAAHYHTHKE]
MIC [20]: 75.8 µM (≈ 128 µg/mL) | MIC [21]: ≥ 100 µM | MIC [22]: ≥ 75.8 µM | MIC [23]: ≥ 50 µM | MIC [24]: 0.592 µM (≈ 1 µg/mL) | MIC [25]: ≥ 100 µM

MIC [15]: 26.8 µM (≈ 32 µg/mL) | MIC [26]: 26.8 µM (≈ 32 µg/mL) | MIC [16]: 26.8 µM (≈ 32 µg/mL) | MIC [17]: ≥ 53.7 µM | MIC (Staphylococcus aureus): 26.8 µM (≈ 32 µg/mL) | MIC [27]: 4.74 µM (≈ 5.65 µg/mL) | MIC [18]: 26.8 µM (≈ 32 µg/mL) | MIC [19]: 26.8 µM (≈ 32 µg/mL)
SMILES: NC(=O)[C@H](Cc1ccccc1)NC(=O)[C@H](Cc1c[nH]c2ccccc12)NC(=O)[C@H](CCCN=C(N)N)NC(=O)[C@H](Cc1c[nH]c2ccccc12)NC(=O)[C@H](CCCN=C(N)N)NC(=O)[C@H](Cc1c[nH]c2ccccc12)NC(=O)[C@@H](N)CCCN=C(N)N [RWRWRWF]
